Laboratory results reported in PMC11434067, “Bioassay-Guided Isolation and Identification of Xanthine Oxidase Inhibitory Constituents from the Fruits of Chaenomeles speciosa (Sweet) Nakai” (Molecules, 2024).
Like-named read-outs stand apart in the source and are kept apart here.

Tests used:
XO [1] = target: T1, XO (Bos taurus, UniProt P80457); assay: In vitro xanthine oxidase inhibition assay (uric acid formation, absorbance at 290 nm); assay type: biochemical
XO [2] = target: T1, XO; details: cited from earlier work

T1 sequence (P80457 whole entry): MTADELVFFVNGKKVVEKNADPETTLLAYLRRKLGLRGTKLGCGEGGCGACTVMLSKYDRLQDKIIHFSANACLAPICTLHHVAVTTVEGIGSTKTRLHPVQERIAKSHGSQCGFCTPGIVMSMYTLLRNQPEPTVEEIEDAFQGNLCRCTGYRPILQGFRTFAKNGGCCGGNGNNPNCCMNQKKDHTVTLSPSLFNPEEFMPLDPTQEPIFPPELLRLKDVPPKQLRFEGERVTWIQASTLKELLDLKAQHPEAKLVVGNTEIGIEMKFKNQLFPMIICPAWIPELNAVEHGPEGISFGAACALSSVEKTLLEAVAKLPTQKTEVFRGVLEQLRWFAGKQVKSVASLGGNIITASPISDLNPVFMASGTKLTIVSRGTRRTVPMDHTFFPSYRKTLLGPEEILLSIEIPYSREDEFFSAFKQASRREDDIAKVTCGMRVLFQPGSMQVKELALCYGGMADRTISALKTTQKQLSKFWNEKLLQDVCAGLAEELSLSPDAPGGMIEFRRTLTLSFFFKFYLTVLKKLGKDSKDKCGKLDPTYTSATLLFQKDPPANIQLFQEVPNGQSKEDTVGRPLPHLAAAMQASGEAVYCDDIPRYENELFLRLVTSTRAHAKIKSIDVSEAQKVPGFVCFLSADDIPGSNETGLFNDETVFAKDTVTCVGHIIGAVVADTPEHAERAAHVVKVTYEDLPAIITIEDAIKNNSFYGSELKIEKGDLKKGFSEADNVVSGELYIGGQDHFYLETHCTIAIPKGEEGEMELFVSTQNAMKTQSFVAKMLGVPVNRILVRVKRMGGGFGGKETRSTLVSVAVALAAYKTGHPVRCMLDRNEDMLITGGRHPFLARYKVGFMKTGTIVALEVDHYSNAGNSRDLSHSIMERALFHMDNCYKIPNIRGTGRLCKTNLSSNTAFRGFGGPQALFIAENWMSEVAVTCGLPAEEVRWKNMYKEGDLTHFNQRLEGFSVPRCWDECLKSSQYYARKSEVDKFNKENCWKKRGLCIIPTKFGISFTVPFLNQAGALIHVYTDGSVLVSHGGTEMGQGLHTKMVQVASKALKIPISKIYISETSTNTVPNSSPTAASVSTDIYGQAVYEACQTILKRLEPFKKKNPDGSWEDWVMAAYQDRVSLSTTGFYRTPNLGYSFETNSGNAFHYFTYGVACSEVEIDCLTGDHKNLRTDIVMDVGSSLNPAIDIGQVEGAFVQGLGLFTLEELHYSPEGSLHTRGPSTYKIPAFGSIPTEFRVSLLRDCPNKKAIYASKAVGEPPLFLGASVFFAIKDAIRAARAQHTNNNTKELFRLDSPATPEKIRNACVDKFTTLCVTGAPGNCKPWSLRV

For O=C(O)c1ccccc1 [compound 8, benzoic acid], the IC50 (XO [1]) was 104 µM and the “inhibition of XO at low concentration (in words)” value (XO [1]; concentration lower than 200 µM) was “high inhibition”.

In the case of CCOC(=O)[C@]1(O)C[C@@H](O)[C@@H](O)[C@H](OC(=O)/C=C/c2ccc(O)c(O)c2)C1 [compound 3, ethyl chlorogenate], the IC50 (XO [1]) is reported as 450 µM.

Work on O=C(O)c1ccc(O)c(O)c1 [compound 9, protocatechuic acid] yielded an IC50 (XO [1]) of 651 µM.

Compound COC(=O)C1(O)C[C@@H](O)C(OC(=O)/C=C/c2ccc(O)c(O)c2)[C@H](O)C1 (stereo partly drawn) [compound 5, cryptochlorogenic acid methyl ester] has an IC50 (XO [1]) of 600 µM.

Compound O=C(O)/C=C/c1ccc(O)c(O)c1 [compound 6, caffeic acid] has an IC50 (XO [1]) of 242 µM.

Work on COC(=O)[C@]1(O)C[C@@H](O)[C@@H](O)[C@H](OC(=O)/C=C/c2ccc(O)c(O)c2)C1 [compound 1, methyl chlorogenate] yielded an IC50 (XO [1]) of 425 µM.

Compound CCCCOC(=O)C1(O)CC(O)C(O)C(OC(=O)C=Cc2ccc(O)c(O)c2)C1 (stereo not drawn) [compound 2, butyl chlorogenate] has an IC50 (XO [1]) of 399 µM.

Work on O=C(O)/C=C/c1ccc(O)cc1 [compound 7, p-coumaric acid] yielded an IC50 (XO [1]) of 351 µM.

For O=C(/C=C/c1ccc(O)c(O)c1)O[C@@H]1C[C@](O)(C(=O)O)C[C@@H](O)[C@H]1O [compound 4, chlorogenic acid], the IC50 (XO [1]) is given as 297 µM, the “type of XO inhibition” value (XO [2]; ref 45) is given as “noncompetitive inhibition” and the “type of XO inhibition” value (XO [2]; ref 46) is given as “non-competitive inhibitory effect”.
